Source: US7442394B2, “Combined effects of nutrients on proliferation of stem cells” (University of South Florida, priority 2005, dated 2008)

Experiments:
human bone marrow cells = experiment: MTT cell proliferation assay on human bone marrow cells; assay type: cell-based; details: for proliferative activity on human bone marrow cells in culture (screen): screened individually; for increase in proliferation, percent over control: 20 μM
[1] = Vitamin D3 blood concentration in humans; assay type: in vivo; details: dose of 50 mcg
Description: In one example, Vitamin D3 is used as 2000 IU's, which is equivalent to 50 μg. In humans, daily administration of 4000 IUs (100 mcg) results in a blood concentration of 100 nmol/L. There is no official RDA for vitamin D3 [R. Vieth, D. Fraser, Vitamin D insufficiency: no recommended dietary allowance exists for this nutrient, CMAJ 166 (2002) 1541-1542](4). According to a conservative report of the Food and Nutrition Board [R. Vieth (2004) Why the optimal requirement for Vitamin D3 is probably much higher than what is officially recommended for adults. Journal of Steroid Biochemistry & Molecular Biology 89-90 (2004) 575-579], the safety limit (no adverse effect level, NOAEL) of vitamin D3 intake in humans is 60 mcg (or 2400 IU) per day [Standing Committee on the Scientific Evaluation of Dietary Reference Intakes. Dietary Reference Intakes: Calcium, Phosphorus, Magnesium, Vitamin D, and Fluoride. National Academy Press, 1997]. After applying a margin of safety, the recommended upper limit is 50 mcg (2000 IUs) per day for intake by the general public [I. Munro, Derivation of tolerable upper intake levels of nutrients, Am. J. Clin. Nutr. 74 (2001) 865-867]. Clinical trials show no benefit from oral doses 20 mcg (800 IUs) or less [R. Vieth (2004) Why the optimal requirement for Vitamin D3 is probably much higher than what is officially recommended for adults. […]

[2] = test system: Human bone marrow-derived CD34+ cells; experiment: MTT cell proliferation assay on CD34+ cells; assay type: cell-based; details: highest doses (BB 500 ng/mL, D3 5 μM, CH 20 μM, Ca 20 μM, GT 500 ng/mL), 72 hours
Description: Human CD133+ cells were cultured for 23 days in the presence or absence of green tea (50 μg/ml).
(§1) Cell cultures and MTT Assay. For cell proliferation analysis, human bone marrow cells, human CD34+cells or CD133 cells (BioWhittaker, Inc.) were cultured in 96 well plates (5×10^4/well) containing 100 μL of complete medium (RPMI 1640 medium supplemented with 5% fetal calf serum). These cells were treated for 72 hours with various extracts at a wide range of doses (8 ng/mL to 500 ng/mL) or molecular compounds (0.3125 μM to 20 μM). Five hours before the end of the treatment, 20 μL of MTT solution (MTT kit, Sigma) was added to each well. These plates were then incubated in a CO2 incubator at 37° C. for 5 hours and the cultured media removed with needle and syringe. 200 μL of DMSO was added to each well with pipetting up and down to dissolve crystals. These plates were put back into the 37° C. incubator for 5 minutes, transferred to plate reader and measured absorbance at 550 nm. Data were represented as relative percentage mean proliferation, defined as O.D. reading number of each treated cells normalized to control cells (in the absence of treatment).

[3] = daily administration of 4000 IUs (100 mcg); cited from earlier work
[4] = cited from earlier work
[5] = test system: CD133+ (progenitor cells) collected from peripheral blood; experiment: MTT cell proliferation assay on CD133+ cells; assay type: cell-based, human; details: same conditions as CD34+ cells
Description: as §1
Promotion of CD133+ Cell Proliferation and Synergistic Properties of Extracts and Compounds. Some of the compounds and combinations with the greatest activity on proliferation of the bone marrow derived CD34+ cells were then used to treat CD133+ (progenitor cells) collected from peripheral blood and cultured under the same conditions as above.

[6] = cited from earlier work; remark: listed apart in the source
[7] = Human pK study of carnosine after beef consumption (Park et al. 2005); assay type: in vivo, humans
Description: In one example, carnosine is added to a supplement in a dose of 100 mg. A recent pK study in humans [Park Y J, Volpe S L, Decker, E A (2005) Quantitation of Carnosine in Humans Plasma after Dietary Consumption of Beef. J. Agric. […] With a Mw of 266 and assuming 5 liters of blood in a human, 250 mg carnosine produces a blood conc of […]. Assuming linear pK, 100 mg should produce a human blood concentration of […]. Doses tested ranged from 1-20 μM, effect was still increasing at 20 μM. Thus, a dose as high as 620 may be helpful and still be within normal ranges for human consumption. A preferred effective range is about 10 mg to 100 mg of carnosine based on extrapolation from results obtained.

[8] = test system: CD117/SCA-1 positive cells (hematopoietic stem cells); experiment: Flow cytometry of CD117/SCA-1 positive cells after 6 days of treatment; assay type: in vivo, mice; details: day 7
Description: (§2) On day 7 cells were isolated and prepared for flow cytometry. The percentage of CD117/SCA-1 positive cells was analyzed. This represents a hematopoietic stem cells. […] On day 7 cells were isolated and plated in the colony forming assay (see specific methods) for 5 days. ATP was detected by luciferase assay and luminescence was converted to ATP units with use of a standard curve. […] Although a statistically small sample, the effects show a cytokine like effect to reduce progenitors in the bone marrow.
(§3) In vivo studies. […] To date we have treated 3 mice with (Blueberry Extract: 3 mg/kg/day; Carnosine: 10 mg/kg/day; Vitamin D3:1 mg/kg/day; green tea extract: 3 mg/kg/day) or water by gavage, in addition 3 mice have been treated with G-CSF […] i.p. Initial studies were done at 6 days of treatment as this is an optimal time for G-CSF to show mobilization of progenitors into the peripheral blood. Bone marrow, spleen and peripheral blood mononuclear cells were examined by flow cytometry with SCA-1 and CD117, the presence of both markers is indicative of multipotent hematopoietic stem cells. […] The three fractions were also assessed in the HALO™ colony forming assay. […] This effect is consistent with the literature and thus increases our confidence in this version of the CFU-C assay.

[9] = test system: colony forming units (CFU-C's); experiment: HALO colony forming assay of bone marrow, spleen and mononuclear cells; assay type: in vivo, mice; details: 6 days of treatment
Description: as §2, §3

O=C(O[C@@H]1Cc2c(O)cc(O)cc2O[C@@H]1c1cc(O)c(O)c(O)c1)c1cc(O)c(O)c(O)c1 [EGCG]
proliferative activity on human bone marrow cells in culture (screen) (human bone marrow cells): did not show high activity

C=C1CC[C@H](O)C/C1=C/C=C1\CCC[C@]2(C)[C@@H]([C@H](C)CCCC(C)(C)O)CC[C@@H]12 [25-Hydroxycholecalciferol]
plasma concentration [1]: 0.05 µM | proliferation, percent over control (human bone marrow cells; 5 μM, 72 hours): 14.8±3.3% | proliferative activity on human bone marrow cells in culture (screen) (human bone marrow cells): increase cell proliferation | increase in proliferation, percent over control (FIG. 2B) [2]: 6.9±2.6% | blood concentration [3]: 100 nmol/L | recommended upper limit for intake by the general public ([4]; after applying a margin of safety): 50 mcg per day | safety in clinical trials ([4]; human oral doses of 1000 IUs to 4000 IUs (100 mcg/day)): completely safe | safety limit (no adverse effect level, NOAEL) of intake ([4]; humans): 60 mcg per day | increase in proliferation, percent over control (FIG. 2C) [5]: 7.6±1.39%

hGM-CSF: positive control, human granulocyte colony-stimulating factor
increase in proliferation, percent over control (FIG. 2A) (human bone marrow cells; combination experiment, BB 500 ng/mL, D3 5 μM, CH 20 μM, Ca 20 μM, GT 500 ng/mL, 72 hours): 48.3±7.4% | proliferation, percent over control (human bone marrow cells; highest dose of 100 ng/ml, 72 hours): 44.5±8.1% | increase in proliferation, percent over control (FIG. 2B) [2]: 48.3±7.4% | increase in proliferation, percent over control (FIG. 2C) [5]: 21.11±2.9%

NCCC(=O)N[C@@H](Cc1cnc[nH]1)C(=O)O [Carnosine]
increase in proliferation, percent over control (human bone marrow cells; 72 hours): 26.6±6.0% | proliferative activity on human bone marrow cells in culture (screen) (human bone marrow cells): increase cell proliferation | increase in proliferation, percent over control (FIG. 2B) [2]: 11.05±2.1% | plasma conc. ([6]; 250 mg carnosine (two beef patties) ingested): 33 mg/L | time of plasma peak ([6]; 250 mg carnosine ingested): 3 h | time of return to baseline ([6]; 250 mg carnosine ingested): 5 h | human blood concentration ([7]; 100 mg, assuming linear pK): 248 µM | concentration at 3 h ([7]; human, whole blood, oral, 250 mg carnosine, Mw of 266, assuming 5 liters of blood, read-out: blood conc): 620 µM | increase in proliferation, percent over control (FIG. 2C) [5]: 16.9±3.3%

Catechin
increase in proliferation, percent over control (human bone marrow cells; 72 hours): 34.8±5.2% | proliferative activity on human bone marrow cells in culture (screen) (human bone marrow cells): increase cell proliferation | increase in proliferation, percent over control (FIG. 2B) [2]: 24.8±5.0%

B1: G-CSF: granulocyte-colony-stimulating factor, potent cytokine given i.p. to mice (protein, UniProt P09919 31-207, looked up)
Granulocyte …: TPLGPASSLPQSFLLKCLEQVRKIQGDGAALQEKLVSECATYKLCHPEELVLLGHSLGIPWAPLSSCPSQALQLAGCLSQLHSGLFLYQGLLQALEGISPELGPTLDTLQLDVADFATTIWQQMEELGMAPALQPTQGAMPAFASAFQRRAGGVLVASHLQSFLEVSYRVLRHLAQP
CD117/SCA-1 positive cells ([8]; BM population): decrease | CD117/SCA-1 positive cells ([8]; all 3 cell fractions (BM, spleen, MNC)): small increase | CD117/SCA-1 positive cells ([8]; spleen and MNC populations): trend for an increase | colony forming units (CFU-C's) ([9]; bone marrow fraction): decrease | colony forming units (CFU-C's) ([9]; bone marrow fraction, listed as GCSF): reduce | colony forming units (CFU-C's) ([9]; spleen and MNC fractions): increase
